Source: patent US12509460B2 (Skyhawk Therapeutics, Inc., priority 2019, dated 2025)
Read-outs that look alike come from different tables or passages of the source.

Assays:
[1] = Quantitative splicing assay (HTT), qPCR; format: cell-based, human; details: Homo sapiens, GM04724, 24 h, GM04724 lymphoblasts, read-out: HTT Splicing: E49-50 EC50
In short: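 Patient lymphoblasts (50,000 cells/well) dosed immediately after plating for 24 h at 2.5 uM to 0.15 nM in 0.1% DMSO. Lysed, cDNA made directly from cells, and inclusion of the intron 49 cryptic exon quantified by TaqMan qPCR.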

[2] = tested on: mHTT protein in GM04724 (CAG 70/20) Huntington's disease patient lymphoblast cells; assay: mHTT protein assay, 2B7-MW1 assay via Mesoscale Discovery (MSD); format: cell-based, human
In short: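 Patient lymphoblasts treated 48 h with compound from 10 μM to 0.6 nM. mHTT quantified by MSD 2B7-MW1 immunoassay, whose signal depends on polyQ expansion and HTT size. Viability measured on a replicate plate by CellTiter Glo.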

[3] = tested on: SMN FL and SMN Δ7 in spinal muscular atrophy (SMA) patient fibroblasts (GM03813, Coriell); assay: Quantitative splicing assay (SMN), qPCR; format: cell-based, human; details: Homo sapiens, Fibroblast, 24 h, 24 h, read-out: SMN2 Splicing FL EC50
Protocol: Spinal muscular atrophy (SMA) patient fibroblasts (GM03813, Coriell) are plated in 96-well plates at 50,000 cells/well. […] Treated cells are lysed and cDNA synthesized using the Fast Advanced Cells-to-Ct kit (Thermofisher A35378) according to the manufacturer's instructions. 2 μL of each cDNA are used in qPCR reactions. […] Reactions are run in a Quant Studio 6 qPCR instrument with default settings.

[4] = tested on: SMN protein in spinal muscular atrophy (SMA) patient fibroblasts (GM03813, Coriell); assay: SMN protein assay, Mesoscale Discovery (MSD); format: cell-based, human; details: for EC50: read-out: SMN2 protein EC50
In short: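 SMA patient fibroblasts (GM03813) seeded at 7000 cells/well and exposed to compound at 2.5 μM to 0.6 nM for 48 hours. Lysates assayed for SMN by MSD immunoassay, with absolute SMN amount calculated from a per-plate SMN standard curve (1 μg/ml to 19.5 pg/ml).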

MDR1 (P-gp) = assay: Blood-brain-barrier (BBB) penetration potential via MDCK-MDR1 permeability assay; details: dog; for Papp A→B at 120 min, 5 μM: MDCK-MDR1, pH 7.4, MDCK-MDR1: Papp A-B; for Papp B→A at 120 min, 5 μM: MDCK-MDR1, pH 7.4, MDCK-MDR1: Papp B-A
Protocol: (§1) Example A13: Assessment of Blood-Brain-Barrier (BBB) Penetration Potential Via an MDCK-MDR1 Permeability Assay
(§2) The permeability of compounds is assessed for BBB penetration potential by use of an MDCK-MDR1 assay (Catalog EA203) performed by Absorption Systems, Exton PA.
(§3) Experimental Procedure: MDR1-MDCK cell monolayers are grown to confluence on collagen-coated, microporous membranes in 12-well assay plates. The permeability assay buffer is Hanks' balanced salt solution containing 10 mM HEPES and 15 mM glucose at a pH of 7.4. The buffer in the receiver chamber also contained 1% bovine serum albumin. The dosing solution concentration is 5 μM of test article in the assay buffer. Cell monolayers are dosed on the apical side (A-to-B) or basolateral side (B-to-A) and incubated at 37° C. with 5% CO2 in a humidified incubator. Samples are taken from the donor and receiver chambers at 120 minutes. Each determination is performed in duplicate. The flux of lucifer yellow is also measured post-experimentally for each monolayer to ensure no damage is inflicted to the cell monolayers during the flux period. All samples are assayed by LC-MS/MS using electrospray ionization.
(§4) The apparent permeability (Papp) and percent recovery are calculated as follows:
(§5) Analytical Method: Liquid Chromatography. Column: Waters ACQUITY UPLC BEH Phenyl 30 ×2.1 mm, 1.7 μm; M.P. Buffer. 25 mM ammonium formate buffer, pH 3.5; Aqueous Reservoir (A): 90% water, 10% buffer, Organic Reservoir (B): 90% acetonitrile, 10% buffer, Flow Rate: 0.7 mL/minute; Gradient Program:
(§6) • Total Run Time: 1.00 minute • Autosampler. 2 μL injection volume • Wash1: water/methanol/2-propanol:1/1/1; with 0.2% formic acid • Wash2: 0.1% formic acid in water • Brain Penetration • Potential Classification: A-B Papp≥3.0 and Efflux Ratio <3.0: High • A-B Papp≥3.0 and 10≥Efflux Ratio >3.0: Moderate • A-B Papp≥3.0 and Efflux Ratio≥10: Low • A-B Papp<3.0: Low

[5] = tested on: MDR1-MDCK cell monolayers; assay: as above
Protocol: as §1, §2, §3, §4, §5, §6

MDR1 = assay: as above; details: dog, MDCK-MDR1, pH 7.4, MDCK-MDR1: Efflux
Protocol: as §1, §2, §3, §4, §5, §6

[6] = GM04724 (CAG 70/20) Huntington's disease patient lymphoblasts
[7] = SMA patient fibroblasts (GM03813)
[8] = SMA patient fibroblasts (GM03813), 48 hours
[9] = GM04724 Huntington's disease patient lymphoblasts
[10] = SMA patient fibroblasts GM03813, 24 h, qPCR
[11] = SMA patient fibroblasts GM03813, 48 hours, MSD

Row | Structure (SMILES) | EC50 [1] [nM] | EC50 [2, 6] [nM] | EC50 [3, 7] [nM] | EC50 [4, 8] [nM] | Papp A→B at 120 min, 5 μM (MDR1 (P-gp); A-B) [×10⁻⁶ cm/s] | Papp B→A at 120 min, 5 μM (MDR1 (P-gp); B-A) [×10⁻⁶ cm/s] | MDCK-MDR1: % Recov A-B ([5]; A-B) [%] | MDCK-MDR1: % Recov B-A ([5]; B-A) [%] | efflux ratio at 120 min, 5 μM (MDR1) | EC50 ([1]; qPCR) [nM] | EC50 [2, 9] [nM] | EC50 [3, 10] [nM] | EC50 [4, 11] [nM] | Papp A→B at 120 min, 5 μM (MDR1 (P-gp); A-B direction) [×10⁻⁶ cm/s] | Papp B→A at 120 min, 5 μM (MDR1 (P-gp); B-A direction) [×10⁻⁶ cm/s] | MDCK-MDR1: % Recov A-B ([5]; A-B direction) [%] | MDCK-MDR1: % Recov B-A ([5]; B-A direction) [%] | efflux ratio at 120 min, 5 μM (MDR1; efflux ratio) | SMN2 protein EC50 [4, 8]
1 | CN(c1ccc(-c2cc3cnccc3cc2O)nn1)[C@H]1C[C@@H]2CCC[C@@H](N2)[C@H]1F [Compound 121B, 7-(6-(((1R,2R,3S,5S)-2-fluoro-9-azabicyclo[3.3.1]nonan-3-yl)(methyl)amino)pyridazin-3-yl)isoquinolin-6-ol] | 0.01 to 15 | 0.01 to 15 | 0.01 to 15 | 0.01 to 15 | 4.47 | 39.5 | 83 | 111 | 9 |  |  |  |  |  |  |  |  |  | 
2 | CN(c1ccc(-c2ccc(-n3cnc(Cl)c3)cc2O)nn1)C1CC2CC(F)(F)C(C1)N2 (single isomer, unassigned) [Compound 37A] |  |  |  |  |  |  |  |  |  | 0.01 to 15 | 16 to 50 | 16 to 50 | 16 to 50 | 17.3 | 34.4 | 52 | 69 | 2 | 
3 | Cc1nc2cc(-c3ccc(N(C)[C@H]4C[C@@H]5CC[C@H]([C@H]4F)N5C)nn3)c(O)cc2c(=O)n1C [Compound 105B, 7-(6-(((1R,2R,3S,5S)-2-fluoro-8-methyl-8-azabicyclo[3.2.1]octan-3-yl)(methyl)amino)pyridazin-3-yl)-6-hydroxy-2,3-dimethylquinazolin-4(3H)-one] | 51 to 100 | 16 to 50 | 101 to 500 |  | 1.28 | 64.3 | 114 | 119 | 50 |  |  |  |  |  |  |  |  |  | E (501 ≤ E ≤ 10.000)
4 | CN(c1ccc(-c2ccc(-c3cnn(C)c3)cc2O)nn1)[C@@H]1C[C@H]2CCC[C@H](N2)[C@H]1F [Compound 14A, 2-(6-(((1S,2R,3R,5R)-2-fluoro-9-azabicyclo[3.3.1]nonan-3-yl)(methyl)amino)pyridazin-3-yl)-5-(1-methyl-1H-pyrazol-4-yl)phenol] |  |  |  |  |  |  |  |  |  | 16 to 50 | 16 to 50 | 51 to 100 | 0.01 to 15 | 3 | 42.4 | 59 | 83 | 14 | 
5 | CN(c1ccc(-c2cc3cncnc3cc2O)nn1)[C@H]1C[C@@H]2CC[C@@H](N2)[C@H]1F [Compound 75B, 6-(6-(((1R,2R,3S,5S)-2-fluoro-8-azabicyclo[3.2.1]octan-3-yl)(methyl)amino)pyridazin-3-yl)quinazolin-7-ol] |  |  |  |  |  |  |  |  |  | 51 to 100 | 51 to 100 | 16 to 50 | 16 to 50 | 2.44 | 50.5 | 88 | 90 | 21 | 
6 | Cc1nc2cc(O)c(-c3ccc(N(C)[C@@H]4C[C@H]5CC[C@H](N5)[C@@H]4F)nn3)cc2s1 [Compound 116A, 6-(6-(((1S,2S,3R,5R)-2-fluoro-8-azabicyclo[3.2.1]octan-3-yl)(methyl)amino)pyridazin-3-yl)-2-methylbenzo[d]thiazol-5-ol] | 16 to 50 | 0.01 to 15 | 51 to 100 | 0.01 to 15 | 4.39 | 42.9 | 86 | 88 | 10 |  |  |  |  |  |  |  |  |  | 
7 | CN(c1ccc(-c2cc3cnn(C)c3cc2O)nn1)[C@@H]1C[C@H]2CC[C@H](N2)[C@@H]1F [Compound 76A, 5-(6-(((1S,2S,3R,5R)-2-fluoro-8-azabicyclo[3.2.1]octan-3-yl)(methyl)amino)pyridazin-3-yl)-1-methyl-1H-indazol-6-ol] |  |  |  |  |  |  |  |  |  | 101 to 500 | 16 to 50 | 101 to 500 | 16 to 50 | 5.55 | 69.2 | 83 | 88 | 12 | 
8 | CN(c1ccc(-c2ccc(-c3cnn(C)c3)cc2O)nn1)[C@H]1C[C@@H]2CCC[C@@H](N2)[C@@H]1F [Compound 14B, 2-(6-(((1R,2S,3S,5S)-2-fluoro-9-azabicyclo[3.3.1]nonan-3-yl)(methyl)amino)pyridazin-3-yl)-5-(1-methyl-1H-pyrazol-4-yl)phenol] |  |  |  |  |  |  |  |  |  | 0.01 to 15 | 0.01 to 15 | 51 to 100 | 0.01 to 15 | 2.95 | 32.1 | 54 | 91 | 11 | 
9 | CCN(c1ccc(-c2ccc(-c3cn[nH]c3)cc2O)nn1)[C@H]1C[C@@H]2CC[C@@H](N2)[C@H]1F [Compound 12B, 2-(6-(ethyl((1R,2R,3S,5S)-2-fluoro-8-azabicyclo[3.2.1]octan-3-yl)amino)pyridazin-3-yl)-5-(1H-pyrazol-4-yl)phenol] |  |  |  |  |  |  |  |  |  | 0.01 to 15 | 0.01 to 15 | 0.01 to 15 | 0.01 to 15 | 0.7 | 30.1 | 57 | 52 | 43 | 
10 | Cc1cc(=O)c2cc(-c3ccc(N(C)[C@H]4C[C@@H]5CC[C@@H](N5)[C@H]4F)nn3)c(O)cc2o1 [Compound 50B, 6-(6-(((1R,2R,3S,5S)-2-fluoro-8-azabicyclo[3.2.1]octan-3-yl)(methyl)amino)pyridazin-3-yl)-7-hydroxy-2-methyl-4H-chromen-4-one] |  |  |  |  |  |  |  |  |  | 0.01 to 15 | 0.01 to 15 | 0.01 to 15 | 0.01 to 15 | 1.81 | 51.8 | 80 | 95 | 29 | 
11 | CN(c1ccc(-c2ccc(-n3nccn3)cc2O)nn1)[C@@H]1C[C@H]2CC[C@H](N2)[C@@H]1F [Compound 90A, 2-(6-(((1S,2S,3R,5R)-2-fluoro-8-azabicyclo[3.2.1]octan-3-yl)(methyl)amino)pyridazin-3-yl)-5-(2H-1,2,3-triazol-2-yl)phenol] |  |  |  |  |  |  |  |  |  | 0.01 to 15 | 0.01 to 15 | 0.01 to 15 | 0.01 to 15 | 6.97 | 22.5 | 41 | 69 | 3 | 
